Source: US20030207863A1, “Preventives and remedies for central nervous system diseases” (priority 2000, published 2003)

System: IMR32 cells
Assay: Amyloid β protein in culture supernatant of IMR32 cells after addition of urotensin II, by enzyme immunoassay
Assay type: cell-based
Settings: cultured 24 hours
Procedure: Test compound 1 was added to IMR32 cells at various concentrations (μM) 10 minutes before addition of 10 nM of urotensin II. Then, urotensin II was added in the presence or absence of test compound 1, the mixture was cultured for 24 hours, and the amount of amyloid β protein in the supernatant of the culture was determined by enzyme immunoassay (Biochemistry, Vol.34, No.32, pp. 10272-10278, (1995)). Test compound 2 as described hereinafter (the compound of Synthesis Example 5) was used and added at a concentration of 1 nM, and the amount of amyloid β protein was determined in the same manner as that of Experimental Example 1. Namely, IMR32 cells were used and test compound 2 was added at a concentration of 1 nM 10 minutes before addition of 10 nM of urotensin II. After addition of urotensin II, the mixture was cultured for 24 hours and the amount of amyloid β protein in the supernatant of the culture was determined by enzyme immunoassay.

Row | Structure (SMILES) | suppression of increase in the selective secretion of amyloid β40 by urotensin II (test compound at various concentrations (μM) added 10 minutes before 10 nM urotensin II, FIG. 1) | suppression of increase of amyloid β40 by urotensin II (test compound at 1 nM added 10 minutes before 10 nM urotensin II, FIG. 2)
1 | Cc1ccc2nc3c(c(N)c2c1)CCN3Cc1ccccc1 [test compound 1] | concentration-dependently suppressed | 
2 | Cl.NS(=O)(=O)c1ccc(CCN(Cc2cccc(-c3cccc(C(=O)NCCN4CCCC4)c3)c2)C(=O)CCCc2ccccc2)cc1 [test compound 2, 3′-{({2-[4-(Aminosulfonyl)phenyl]ethyl}[4-phenylbutanoyl]amino)methyl}-N-[2-(1-pyrrolidinyl)ethyl][1,1′-biphenyl]-3-carboxamide Hydrochloride] |  | completely suppressed
